Experimental data from patent publication US20240083857A1, “2-Methyl-Quinazolines” (Bayer Pharma Aktiengesellschaft, priority 2017, published 2024).

Key:
[1] = molecular target: human SOS1 (nucleotide exchange of K-Ras^G12C) (Homo sapiens, UniProt Q07889); assay: Biochemical assay 2: K-Ras^G12C activation assay by hSOS1 at high GTP concentration (HTRF); conditions: high GTP; for IC50: read-out: Assay 2 (KRAS-Activation by SOS high GTP) activity expressed as IC50
[2] = molecular target: human SOS1 (loading of human K-Ras^G12C-GDP with fluorescent GTP-analog) (Homo sapiens, UniProt Q07889); assay: Biochemical assay 3: K-Ras^G12C activation assay by hSOS1 (HTRF); conditions: no GTP; for IC50: read-out: Assay 3 (KRAS-Activation by SOS no GTP) activity expressed as IC50

## COc1cc2nc(C)nc(N[C@H](C)c3ccc(-c4ccccc4CCN)s3)c2cc1OC (stereo in doubt) [Example 357, N-[1-{5-[2-(2-aminoethyl)phenyl]thiophen-2-yl}ethyl]-6,7-dimethoxy-2-methylquinazolin-4-amine]
[1]
  IC50: 48.8 nM
[2]
  IC50: 69.2 nM

## COc1cc2nc(C)nc(NC(C)c3ccc(-c4ccccc4[C@@H](C)NC(=O)OC(C)(C)C)s3)c2cc1OC (stereo in doubt) [Example 358, tert-butyl {1-[2-(5-{1-[(6,7-dimethoxy-2-methylquinazolin-4-yl)amino]ethyl}thiophen-2-yl)phenyl]ethyl}carbamate]
[1]
  IC50: 1530 nM
[2]
  IC50: 2450 nM

## COc1cc2nc(C)nc(NC(C)c3ccc(-c4ccccc4[C@@H](C)N)s3)c2cc1OC (stereo in doubt) [Example 359, N-[1-(5-{2-[1-aminoethyl]phenyl}thiophen-2-yl)ethyl]-6,7-dimethoxy-2-methylquinazolin-4-amine]
[1]
  IC50: 200 nM
[2]
  IC50: 299 nM

## COc1cc2nc(C)nc(NC(C)c3ccc(-c4ccccc4[C@H](C)N)s3)c2cc1OC (stereo in doubt) [Example 360, N-[1-(5-{2-[1-aminoethyl]phenyl}thiophen-2-yl)ethyl]-6,7-dimethoxy-2-methylquinazolin-4-amine]
[1]
  IC50: 141 nM
[2]
  IC50: 190 nM

## COc1cc2nc(C)nc(NC(C)c3cccc4c3CCO4)c2cc1OC (stereo not drawn) [Example 22, N-[1-(2,3-dihydro-1-benzofuran-4-yl)ethyl]-6,7-dimethoxy-2-methylquinazolin-4-amine]
[1]
  IC50: 219 nM
[2]
  IC50: 589 nM

## COc1cc2nc(C)nc(NC(C)c3ccc4c(c3)OCO4)c2cc1OC (stereo not drawn) [Example 23, N-[1-(1,3-benzodioxol-5-yl)ethyl]-6,7-dimethoxy-2-methylquinazolin-4-amine]
[1]
  IC50: 1850 nM
[2]
  IC50: 8620 nM

## COc1cc2nc(C)nc(NC(C)c3ccc4c(c3)CCO4)c2cc1OC (stereo not drawn) [Example 24, N-[1-(2,3-dihydro-1-benzofuran-5-yl)ethyl]-6,7-dimethoxy-2-methylquinazolin-4-amine]
[1]
  IC50: 1220 nM
[2]
  IC50: 2450 nM

## COc1cc2nc(C)nc(NC(C)c3ccc4c(c3)CCCC4)c2cc1OC (stereo not drawn) [Example 25, 6,7-dimethoxy-2-methyl-N-[1-(5,6,7,8-tetrahydronaphthalen-2-yl)ethyl]quinazolin-4-amine]
[1]
  IC50: 850 nM
[2]
  IC50: 1500 nM

## COc1cc2nc(C)nc(NC(C)c3c(C)nc4ccccn34)c2cc1OC (stereo not drawn) [Example 26, 6,7-dimethoxy-2-methyl-N-[1-(2-methylimidazo[1,2-a]pyridin-3-yl)ethyl]quinazolin-4-amine]
[1]; read-out: Assay 2 (KRAS-Activation by SOS high GTP) activity expressed as % inhibition at 20 μM, at 20 μM
  inhibition at 20 µM: 52%
[2]
  IC50: 6960 nM

## COc1cc2nc(C)nc(NC(C)c3csc4ccccc34)c2cc1OC (stereo not drawn) [Example 27, N-[1-(1-benzothiophen-3-yl)ethyl]-6,7-dimethoxy-2-methylquinazolin-4-amine]
[1]
  IC50: 402 nM
[2]
  IC50: 498 nM

## Cc1nc(N[C@H](C)c2ccccc2)c2cc(N=S(C)(C)=O)ccc2n1 [Example 30, 6-{[dimethyl(oxido)-lambda6-sulfanylidene]amino}-2-methyl-N-[(1R)-1-phenylethyl]quinazolin-4-amine]
[1]
  IC50: 1100 nM
[2]
  IC50: 2910 nM

## Cc1nc(N[C@H](C)c2ccc(F)cc2)c2cc(N=S(C)(C)=O)ccc2n1 [Example 32, 6-{[dimethyl(oxido)-lambda6-sulfanylidene]amino}-N-[(1R)-1-(4-fluorophenyl)ethyl]-2-methylquinazolin-4-amine]
[1]
  IC50: 1400 nM
[2]
  IC50: 2590 nM

## COc1cc2nc(C)nc(NC(C)c3ccc4c(c3)NC(=O)CO4)c2cc1OC (stereo not drawn) [Example 34, 6-{1-[(6,7-dimethoxy-2-methylquinazolin-4-yl)amino]ethyl}-2H-1,4-benzoxazin-3(4H)-one]
[1]
  IC50: 3710 nM
[2]
  IC50: 16800 nM

## COc1ccc2cc(C(C)Nc3nc(C)nc4cc(OC)c(OC)cc34)ccc2c1 (stereo not drawn) [Example 35, 6,7-dimethoxy-N-[1-(6-methoxy-2-naphthyl)ethyl]-2-methylquinazolin-4-amine]
[1]
  IC50: 4780 nM
[2]; read-out: Assay 3 (KRAS-Activation by SOS no GTP) activity expressed as % inhibition at 20 μM, at 20 μM
  inhibition at 20 µM: 48%

## COc1cc2nc(C)nc(N[C@H](C)c3cccc(-c4ccc(O)nc4)c3)c2cc1OC [Example 68, 5-(3-{(1R)-1-[(6,7-dimethoxy-2-methylquinazolin-4-yl)amino]ethyl}phenyl)pyridin-2-ol]
[1]
  IC50: 486 nM
[2]
  IC50: 471 nM

## COc1cc2nc(C)nc(N[C@H](C)c3cccc(-n4cccn4)c3)c2cc1OC [Example 341, 6,7-dimethoxy-2-methyl-N-{(1R)-1-[3-(1H-pyrazol-1-yl)phenyl]ethyl}quinazolin-4-amine]
[1]
  IC50: 3730 nM
[2]
  IC50: 12200 nM

## COc1cc2nc(C)nc(N[C@H](C)c3cccc(Br)c3)c2cc1OCc1ccccc1 [Example 343, 6-(benzyloxy)-N-[(1R)-1-(3-bromophenyl)ethyl]-7-methoxy-2-methylquinazolin-4-amine]
[1]
  IC50: 1610 nM
[2]
  IC50: 4330 nM

## COc1cc2nc(C)nc(N[C@H](C)c3cccc(-c4cn[nH]c4)c3)c2cc1OCc1ccccc1 [Example 344, 6-(benzyloxy)-7-methoxy-2-methyl-N-{(1R)-1-[3-(1H-pyrazol-4-yl)phenyl]ethyl}-quinazolin-4-amine]
[1]
  IC50: 1190 nM
[2]
  IC50: 1860 nM

## COc1cc2nc(C)nc(N[C@H](C)c3cccc(-c4cn[nH]c4)c3)c2cc1O [Example 345, 7-methoxy-2-methyl-4-({(1R)-1-[3-(1H-pyrazol-4-yl)phenyl]ethyl}amino)quinazolin-6-ol]
[1]
  IC50: 7840 nM
[2]
  IC50: 29400 nM

## COc1cc2nc(C)nc(N[C@H](C)c3cccc(-c4cn[nH]c4)c3)c2cc1OCC1CC1 [Example 346, 6-(cyclopropylmethoxy)-7-methoxy-2-methyl-N-{(1R)-1-[3-(1H-pyrazol-4-yl)phenyl]ethyl}quinazolin-4-amine]
[1]
  IC50: 395 nM
[2]
  IC50: 576 nM

## COCCOc1cc2c(N[C@H](C)c3cccc(-c4cn[nH]c4)c3)nc(C)nc2cc1OC [Example 348, 7-methoxy-6-(2-methoxyethoxy)-2-methyl-N-{(1R)-1-[3-(1H-pyrazol-4-yl)phenyl]-ethyl}quinazolin-4-amine]
[1]
  IC50: 816 nM
[2]
  IC50: 753 nM

## CC[C@@H](O)c1ccccc1-c1ccc(C(C)Nc2nc(C)nc3cc(OC)c(OC)cc23)s1 (stereo partly drawn) [Example 349, (1R)-1-[2-(5-{1-[(6,7-dimethoxy-2-methylquinazolin-4-yl)amino]ethyl}thiophen-2-yl)phenyl]propan-1-ol]
[1]
  IC50: 649 nM
[2]
  IC50: 740 nM

## CCCCOc1cc2c(N[C@H](C)c3cccc(-c4cn[nH]c4)c3)nc(C)nc2cc1OC [Example 350, 6-butoxy-7-methoxy-2-methyl-N-{(1R)-1-[3-(1H-pyrazol-4-yl)phenyl]ethyl}quinazolin-4-amine]
[1]
  IC50: 736 nM
[2]
  IC50: 850 nM

## COc1cc2nc(C)nc(N[C@H](C)c3cccc(-c4cn[nH]c4)c3)c2cc1OCCC(C)C [Example 351, 7-methoxy-2-methyl-6-(3-methylbutoxy)-N-{(1R)-1-[3-(1H-pyrazol-4-yl)phenyl]ethyl}quinazolin-4-amine]
[1]
  IC50: 1200 nM
[2]
  IC50: 1310 nM

## COc1cc2nc(C)nc(NC(C)c3ccc(-c4ccccc4CCNC(=O)OC(C)(C)C)s3)c2cc1OC (stereo not drawn) [Example 352, tert-butyl {2-[2-(5-{1-[(6,7-dimethoxy-2-methylquinazolin-4-yl)amino]ethyl}thiophen-2-yl)phenyl]ethyl}carbamate]
[1]
  IC50: 12200 nM
[2]
  IC50: 18200 nM

## COc1cc2nc(C)nc(N[C@H](C)c3cccc(-c4cn[nH]c4)c3)c2cc1OC(C)C [Example 353, 7-methoxy-2-methyl-6-(propan-2-yloxy)-N-{(1R)-1-[3-(1H-pyrazol-4-yl)phenyl]ethyl}quinazolin-4-amine]
[1]
  IC50: 420 nM
[2]
  IC50: 453 nM

## COc1cc2nc(C)nc(N[C@H](C)c3cccc(-c4cn[nH]c4)c3)c2cc1OCC1COC1 [Example 354, 7-methoxy-2-methyl-6-(oxetan-3-ylmethoxy)-N-{(1R)-1-[3-(1H-pyrazol-4-yl)phenyl]ethyl}quinazolin-4-amine]
[1]
  IC50: 516 nM
[2]
  IC50: 677 nM

## CCOc1cc2c(N[C@H](C)c3cccc(-c4cn[nH]c4)c3)nc(C)nc2cc1OC [Example 355, 6-Ethoxy-7-methoxy-2-methyl-N-{(1R)-1-[3-(1H-pyrazol-4-yl)phenyl]ethyl}-quinazolin-4-amine]
[1]
  IC50: 571 nM
[2]
  IC50: 714 nM

## CCOc1cc2c(N[C@H](C)c3cccc(-c4cnn(CC)c4)c3)nc(C)nc2cc1OC [Example 356, 6-ethoxy-N-{(1R)-1-[3-(1-ethyl-1H-pyrazol-4-yl)phenyl]ethyl}-7-methoxy-2-methylquinazolin-4-amine]
[1]
  IC50: 777 nM
[2]
  IC50: 933 nM

## COc1cc2nc(C)nc(NC(C)c3ccc(-c4ccccc4-c4cn[nH]c4)s3)c2cc1OC (stereo not drawn) [Example 361, 6,7-dimethoxy-2-methyl-N-[1-{5-[2-(1H-pyrazol-4-yl)phenyl]thiophen-2-yl}ethyl]-quinazolin-4-amine]
[1]
  IC50: 4050 nM
[2]
  IC50: 8600 nM

## Cc1nc(N[C@H](C)c2cccc(Cl)c2)c2cc(Br)ccc2n1 [Example 363, 6-bromo-N-[(1R)-1-(3-chlorophenyl)ethyl]-2-methylquinazolin-4-amine]
[1]
  IC50: 11300 nM
[2]
  IC50: 17200 nM

## COc1cc2nc(C)nc(NC(C)c3ccc(-c4ccccc4CNC4CCCC4)s3)c2cc1OC (stereo not drawn) [Example 364, N-[1-(5-{2-[(cyclopentylamino)methyl]phenyl}thiophen-2-yl)ethyl]-6,7-dimethoxy-2-methylquinazolin-4-amine]
[1]
  IC50: 158 nM
[2]
  IC50: 217 nM

## COc1cc2nc(C)nc(NC(C)c3ccc(-c4ccccc4CNCc4ccccc4)s3)c2cc1OC (stereo not drawn) [Example 365, N-[1-(5-{2-[(benzylamino)methyl]phenyl}thiophen-2-yl)ethyl]-6,7-dimethoxy-2-methylquinazolin-4-amine]
[1]
  IC50: 299 nM
[2]
  IC50: 353 nM
